Test results reported in article PMC3498381, “Isolated Toll-like Receptor Transmembrane Domains Are Capable of Oligomerization” (PLoS ONE, 2012).
No end group written: not given here.

What was measured:
[1] = tested on: homotypic interaction of the same TMD peptide; assay: Fluorescence self-quenching assay in C14-betaine micelles; type: binding, human; settings: from molar fraction Kd compared with known ranges of TMD interactions
Description: An apparent dissociation constant (Kd) can be determined from self-quenching interactions by varying the amount of detergent present for a fixed peptide concentration. At low detergent:peptide ratios, the TMD peptides are driven to interact; however, gradually increasing the amount of detergent present at a fixed peptide concentration will cause the TMD interactions to dissociate. Then, at some critical detergent:peptide ratio, the interaction is completely dissociated and the fluorescence plateaus. […] Fitting the data results in apparent dissociation constants, Kd, in terms of a dimensionless detergent:peptide ratio (molar fraction) as this ratio, instead of the bulk concentration, is more relevant to TMD peptide association. For TLR1 the Kd was determined to be 645.63±49.08, for TLR6 the Kd was determined to be 883.57±86.92 and for TLR2 the Kd was determined to be 4475.5±637.9. […]
Figure 5 TLR1, TLR2, and TLR6 Homotypic Interactions by Fluorescence Self-Quenching. […] Homotypic interaction affinity was studied by changes of fluorescence intensity at different molar ratios of detergent to peptide. […] Increasing detergent competes off the TMD-TMD interactions and leads to an increase in fluorescence signal. […] Kd were determined using the Hill Equation.
Fluorescence self-quenching was used to directly probe the homotypic interactions of the synthetic peptides. […] Peptide concentrations of these samples were determined by UV-VIS and adjusted with the corresponding C14-Betaine only buffers such that all peptide concentrations were 1 µM. […] Samples were allowed to equilibrate in the 96-well plate at room temperature for 2 h before measurement using a Beckman-Coulter DTX 880 Multimode Detector plate reader. […] Each data point is blank corrected for the corresponding C14-Betaine only signal and are the average of 3 different readings. To scale the data from 0 to 1, the initial data point was averaged and set to be zero by subtracting from all further readings, and the data points that are in the plateau region were averaged and then all values were divided by this average to get a maximum of 1. […]

[2] = tested on: GpA TMD (functional ToxR chimera); assay: Dominant-negative (heterotypic) ToxR assay, GpA as dominant phenotype; type: cell-based; settings: Miller units normalized to poly-Leu* = 1 and corrected for expression, lower = stronger interaction, N in table
Description: Next, we investigated heterotypic interactions of the TLRs. We specifically studied TLR2, TLR1, and TLR6 because they are cell surface expressed receptors known to form functional heterodimers. To determine the ability of these three cell surface TLRs to have heterotypic interactions within its family, we studied the ability of the TLR1, TLR2, and TLR6 TMDs to interact with the TLR receptors also expressed at the cell surface; namely, TLR1, TLR2, TLR4, TLR5, TLR6, and TLR10. We monitored these interactions using a dominant-negative ToxR assay (Fig. S1B) which works by having a second TMD expressed with a non-functional ToxR* intracellular domain. This ToxR* domain is incapable of binding the ctx promoter making any interactions with this second expressed TMD unable to produce the reporter enzyme. As such, any interaction between the functional ToxR and non-functional ToxR* TMDs will result in a reduction in signal output.
Figure 3 Cell- Surface Toll-like Recptor Heterotypic Interactions. (A) A dominant-negative ToxR assay was used to study heterotypic interactions of the cell-surface TLRs. Two TLR TMDs were encoded in the FHK12 E.coli reporter strain, one with a functional ToxR domain (dominant phenotype) and one with a nonfunctional ToxR* domain (negative phenotype). Interaction between the two different TMDs leads to a reduction in signal from that seen for homotypic interactions. The TMDs for GpA, TLR1, TLR2, and TLR6 were used with the functional ToxR domain while TMDs for poly-Leucine, TMD5, integrin αIIb, TLR1, TLR2, TLR4, TLR5, TLR6, and TLR10 were used with the nonfunctional ToxR* domain. Interactions were most prominent for the TLRs known to have heterotypic interactions – TLR2-TLR1 and TLR2-TLR6. […] We also saw interaction with the same TMD further validating the homotypic interactions. […] Each dominant phenotype was done in 3 technical replicates with each negative phenotype and >6 measurements made for each replicate. Error bars depict the standard error of the mean (n- Tables S3, S5, S7, S9). Western blots staining for MBP were performed to monitor expression levels of the constructs with the upper band being functional ToxR chimeras and the lower band being nonfunctional ToxR* chimeras – (B) GpA, (C) TLR1, (D) TLR2, and (E) TLR6. Significant differences for the same dominant phenotype were determined by use of the Tukey-Kramer test.
For heterotypic interactions one plasmid containing a functional ToxR domain (200 ng) and a second plasmid containing a non-functional ToxR* domain (200 ng) were co-transformed into chemically competent FHK12 E. coli (400 µL) by incubating on ice for 30 min, heat shock at 42°C for 90 s, incubation on ice for 2 min, and addition of SOC media (1600 µL) followed by incubation with shaking for 1 h at 37°C. This transformation mixture (50 µL) was then used to spread LB-agar plates containing cholaramphenicol (30 µg/mL), kanamycin (33 µg/mL), and ampicillin (100 µg/mL) and grown overnight at 37°C. Single colonies were selected from the plates and grown in 5 mL LB media containing cholaramphenicol (30 µg/mL), kanamycin (33 µg/mL), ampicillin (100 µg/mL), and arabinose (0.0025%) overnight (16–20 h) with shaking at 37°C. Analysis of activity was monitored as described in homotypic ToxR assays. Western blotting was done in the same manner as the homotypic ToxR assay with one band appearing for the functional ToxR construct and a second band for the nonfunctional ToxR* construct. Data were normalized to poly-Leu* Miller Units and corrected for varying protein expression levels using ImageJ (NIH) as previously reported.

Substance | Classification of homotypic interaction strength [1] | Mean GpA-TMD* heterotypic interaction (ToxR signal) [2]
TLR2*: TLR2 TMD chimera with nonfunctional ToxR* domain (negative phenotype) (GNRASALVSGMCCALFLLILLTGVLCGSLIN; cysteine pairing not given here; also: fused to non-functional ToxR* (S87H) and maltose binding protein, ends not given here) | moderately strong | 0.7284
TLR1*: TLR1 TMD chimera with nonfunctional ToxR* domain (negative phenotype) (GNRASITLLIVTIVATMLVLAVTVTSLCSYLGSLIN; also: fused to non-functional ToxR* (S87H) and maltose binding protein, ends not given here) | weak | 0.8934
TLR6*: TLR6 TMD chimera with nonfunctional ToxR* domain (negative phenotype) (GNRASITLLIVTIGATMLVLAVTVTSLCIYLGSLIN; also: fused to non-functional ToxR* (S87H) and maltose binding protein, ends not given here) | weak | 1.0451
